Measurements from patent US12485134B2, “Use of nicotinamide riboside, nicotinic acid riboside, reduced nicotinyl riboside compounds, and nicotinyl riboside compound derivatives in formulations” (ChromaDex Inc., priority 2019, dated 2025).

Legend:
[1] = test system: hydrolyzed whey protein isolate; assay: NR-Cl binding to hydrolyzed whey protein isolate (10 kDa cutoff filtration, unbound NR-Cl in filtrate by HPLC)
Procedure: (§1) A. Solutions of hydrolyzed whey protein isolate (>90% protein, 2-7% degree of hydrolysis) were prepared at varying concentrations and filtered through 0.2 μm sterile filters. An aliquot of sterile nicotinamide riboside chloride (“NR-Cl,” a salt of NR, I) in water solution was spiked into the sterile whey solutions, targeting a final NR-Cl concentration of 1 mmol per liter (0.3 mg/mL). The solutions containing the mixture of hydrolyzed whey and NR-Cl were filtered through 10 kDa molecular weight cutoff centrifuge filters to remove the whey proteins (14-80 kDa) and any NR-Cl that was bound to the proteins. Any NR-Cl that was not bound to the whey proteins was recovered in the filtrate and quantitated by HPLC.
The solutions of hydrolyzed whey protein isolate and NR-Cl were stored at ambient and refrigerated conditions and analyzed at various timepoints for NR-Cl protein binding and stability.
(§2) A study measuring the stability of NR-Cl in hydrolyzed and non-hydrolyzed whey protein was conducted with 2 mmol/L NR-Cl (0.6 mg/mL) and 20 mg/mL protein (33.3:1 wt:wt protein:NR-Cl). […] (See Table 5).

Albumin = Albumin (Bos taurus, UniProt P02769); assay: NR-Cl binding to individual whey proteins (cutoff filter method); settings: 1 mmol/L each of protein and NR-Cl
Procedure: as §1
(§3) The solutions were prepared with 1 mmol/L each of protein and NR-Cl. NR-Cl binding to one or more of these individual proteins could be responsible for the enhanced stability of NR-Cl seen in hydrolyzed whey protein isolate.

Alpha-lactalbumin = target: T1, Alpha-lactalbumin (Bos taurus, UniProt P00711); assay: as above; settings: 1 mmol/L each of protein and NR-Cl
T1 sequence (P00711 20-142): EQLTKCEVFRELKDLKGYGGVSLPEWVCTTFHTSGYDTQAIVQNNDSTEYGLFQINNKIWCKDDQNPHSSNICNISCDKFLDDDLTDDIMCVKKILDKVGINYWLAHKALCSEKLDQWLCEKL
Procedure: as §1, §3

Beta-lactoglobulin = target: T2, Beta-lactoglobulin (Bos taurus, UniProt P02754); assay: as above; settings: 1 mmol/L each of protein and NR-Cl
T2 sequence (P02754 17-178): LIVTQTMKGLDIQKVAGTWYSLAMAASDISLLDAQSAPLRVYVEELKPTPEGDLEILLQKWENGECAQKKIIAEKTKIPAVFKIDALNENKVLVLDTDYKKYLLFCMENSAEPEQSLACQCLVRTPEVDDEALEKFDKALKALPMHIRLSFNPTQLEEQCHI
Procedure: as §1, §3

Lactoferrin = Lactoferrin (Bos taurus, UniProt P24627); assay: as above; settings: 1 mmol/L each of protein and NR-Cl
Procedure: as §1, §3

Transferrin = Transferrin (Bos taurus, UniProt Q29443); assay: as above; settings: 1 mmol/L each of protein and NR-Cl
Procedure: as §1, §3

[2] = test system: non-hydrolyzed whey protein; assay: NR-Cl binding to non-hydrolyzed whey protein isolate (cutoff filter method); settings: Non-Hydrolyzed Whey Protein Isolate 20 mg/mL, 2 mmol/L NR-Cl (33.3:1 wt:wt)
Procedure: as §1, §2

[3] = test system: milk concentrate proteins; assay: WaterLOGSY NMR binding of NR-Cl; settings: pH 7.0
Procedure: (§4) WaterLOGSY is a sensitive ligand-observed NMR experiment designed for the screening of protein ligands from a mixture of potential binders. […] The experiment relies on fast dissociation of bound ligands to carry into the free state magnetisation originating from irradiated water that has been transmitted via the protein complex.
(§5) NMR samples for WaterLOGSY were prepared as follows. Ligand-detect WaterLOGSY experiments were carried at 600 MHz with 5-mm cryoprobe and using 5-mm NMR tubes. Each NMR sample for WaterLOGSY contained ˜0.05 mg (˜0.35 mM), using unlabeled ligand NR-Cl (“NR”), in a NMR buffer containing ˜0.5 mL 90% H2O/10% ^2H2O at pH 7.0 with or without the milk and soy protein mix (compared to the WaterLOGSY of NR as a negative control). Protein was added as a powder with a minimal 15 to 50 μM concentration. Typically, the final NMR sample of protein-compound mixtures had >20-fold higher compound concentration of ligand compared to that of the protein. Denatured samples were prepared by simply heating (80° C. for 15-20 mins) the aqueous (5-10% ^2H2O) protein mixture (in absence of NR).
The NR only WaterLOGSY spectrum (FIG. 23) was the negative control to screen for any potential binding of NR-Cl to milk concentrate and soy isolate proteins as shown herein and discussed below.

soy isolate proteins = assay: WaterLOGSY NMR binding of NR-Cl; settings: native vs denatured, pH 7.0
Procedure: as §4, §5

Chain of Albumin (P02769 25-607): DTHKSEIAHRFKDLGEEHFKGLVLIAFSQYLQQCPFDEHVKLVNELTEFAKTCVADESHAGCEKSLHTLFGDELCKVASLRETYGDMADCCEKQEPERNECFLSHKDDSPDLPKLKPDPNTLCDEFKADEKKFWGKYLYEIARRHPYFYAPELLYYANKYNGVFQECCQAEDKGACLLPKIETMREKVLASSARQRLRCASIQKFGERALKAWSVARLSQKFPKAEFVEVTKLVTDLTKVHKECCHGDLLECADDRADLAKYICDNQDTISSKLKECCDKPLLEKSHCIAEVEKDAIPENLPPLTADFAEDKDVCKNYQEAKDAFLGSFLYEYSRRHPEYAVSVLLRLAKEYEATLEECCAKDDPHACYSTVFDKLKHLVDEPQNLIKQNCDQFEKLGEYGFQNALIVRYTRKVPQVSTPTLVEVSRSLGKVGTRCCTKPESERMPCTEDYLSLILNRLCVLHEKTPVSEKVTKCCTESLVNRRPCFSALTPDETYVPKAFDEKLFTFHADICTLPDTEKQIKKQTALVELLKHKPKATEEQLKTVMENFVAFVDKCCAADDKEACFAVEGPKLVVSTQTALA
Chain of Transferrin (Q29443 20-704): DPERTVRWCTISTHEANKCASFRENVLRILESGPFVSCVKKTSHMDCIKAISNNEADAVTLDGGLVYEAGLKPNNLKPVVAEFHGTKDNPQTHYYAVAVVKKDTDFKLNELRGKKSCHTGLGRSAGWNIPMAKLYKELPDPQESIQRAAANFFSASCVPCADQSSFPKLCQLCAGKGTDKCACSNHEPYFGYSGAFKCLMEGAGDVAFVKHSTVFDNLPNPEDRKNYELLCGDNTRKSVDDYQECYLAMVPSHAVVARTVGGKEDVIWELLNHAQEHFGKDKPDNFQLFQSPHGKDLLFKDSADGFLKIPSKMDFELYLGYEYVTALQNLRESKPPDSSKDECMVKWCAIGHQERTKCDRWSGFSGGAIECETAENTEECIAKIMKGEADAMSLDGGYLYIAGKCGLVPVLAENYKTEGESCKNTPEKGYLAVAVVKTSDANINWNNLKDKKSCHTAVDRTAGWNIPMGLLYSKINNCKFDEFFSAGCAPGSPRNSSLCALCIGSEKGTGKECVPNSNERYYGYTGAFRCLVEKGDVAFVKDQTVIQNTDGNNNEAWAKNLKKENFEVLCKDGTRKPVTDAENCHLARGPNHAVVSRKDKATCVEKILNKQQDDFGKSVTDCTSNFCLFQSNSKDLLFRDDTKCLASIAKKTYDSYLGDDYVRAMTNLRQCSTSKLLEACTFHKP
Chain of Lactoferrin (P24627 20-708): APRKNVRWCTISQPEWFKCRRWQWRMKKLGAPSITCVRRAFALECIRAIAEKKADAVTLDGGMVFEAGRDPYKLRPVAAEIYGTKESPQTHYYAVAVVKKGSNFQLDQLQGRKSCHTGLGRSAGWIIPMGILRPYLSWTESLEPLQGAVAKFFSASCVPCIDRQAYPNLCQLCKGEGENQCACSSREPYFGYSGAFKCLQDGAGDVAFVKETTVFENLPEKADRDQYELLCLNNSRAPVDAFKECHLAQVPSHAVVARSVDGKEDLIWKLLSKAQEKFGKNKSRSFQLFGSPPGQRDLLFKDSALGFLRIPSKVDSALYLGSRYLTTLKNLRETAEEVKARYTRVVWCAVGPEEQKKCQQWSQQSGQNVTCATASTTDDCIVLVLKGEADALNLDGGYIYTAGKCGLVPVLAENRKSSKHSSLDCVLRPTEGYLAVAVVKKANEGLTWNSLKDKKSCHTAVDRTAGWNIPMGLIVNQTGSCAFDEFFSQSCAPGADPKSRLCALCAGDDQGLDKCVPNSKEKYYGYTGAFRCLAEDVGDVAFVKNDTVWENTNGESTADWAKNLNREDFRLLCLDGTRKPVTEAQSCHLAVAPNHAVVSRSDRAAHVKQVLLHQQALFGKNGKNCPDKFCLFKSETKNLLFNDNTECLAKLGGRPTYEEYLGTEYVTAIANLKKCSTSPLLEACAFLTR

SMILES: NC(=O)c1ccc[n+]([C@@H]2O[C@H](CO)[C@@H](O)[C@H]2O)c1.[Cl-] [NR-Cl, nicotinamide riboside chloride]
- fraction of NR-Cl bound to whey protein over the course of the experiments ([1]; 7 days ambient, 30 days refrigerated): remain stable
- % NR-Cl Bound to Protein ([1]; Hydrolyzed Whey Protein Isolate 20 mg/mL, 2 mmol/L NR-Cl (33.3:1 wt:wt), 0 days refrigerated): 55%
- % NR-Cl Bound to Protein ([1]; Hydrolyzed Whey Protein Isolate 20 mg/mL, 2 mmol/L NR-Cl (33.3:1 wt:wt), 1 day refrigerated): 56%
- % NR-Cl Bound to Protein ([1]; hydrolyzed whey protein isolate:NR-Cl 18.3:1 (wt:wt), 1 mmol/L NR-Cl): 41%
- % NR-Cl Bound to Protein ([1]; hydrolyzed whey protein isolate:NR-Cl 37:1 (wt:wt), 1 mmol/L NR-Cl): 47%
- % NR-Cl Bound to Protein ([1]; hydrolyzed whey protein isolate:NR-Cl 73:1 (wt:wt), 1 mmol/L NR-Cl): 60%
- % NR-Cl Bound to Protein ([1]; hydrolyzed whey protein isolate:NR-Cl 147:1 (wt:wt), 1 mmol/L NR-Cl): 65%
- % NR-Cl Bound to Protein ([1]; hydrolyzed whey protein isolate:NR-Cl 293:1 (wt:wt), 1 mmol/L NR-Cl): 67%
- % NR-Cl Bound to Protein ([1]; hydrolyzed whey:NR-Cl 18.3:1 (wt:wt), 0 days ambient): 41%
- % NR-Cl Bound to Protein ([1]; hydrolyzed whey:NR-Cl 18.3:1 (wt:wt), 0 days refrigerated): 41%
- % NR-Cl Bound to Protein ([1]; hydrolyzed whey:NR-Cl 18.3:1 (wt:wt), 3 days ambient): 44%
- % NR-Cl Bound to Protein ([1]; hydrolyzed whey:NR-Cl 18.3:1 (wt:wt), 5 days ambient): 45%
- % NR-Cl Bound to Protein ([1]; hydrolyzed whey:NR-Cl 18.3:1 (wt:wt), 7 days ambient): 43%
- % NR-Cl Bound to Protein ([1]; hydrolyzed whey:NR-Cl 18.3:1 (wt:wt), 30 days refrigerated): 24%
- % NR-Cl Bound to Protein ([1]; hydrolyzed whey:NR-Cl 37:1 (wt:wt), 0 days ambient): 47%
- % NR-Cl Bound to Protein ([1]; hydrolyzed whey:NR-Cl 37:1 (wt:wt), 0 days refrigerated): 47%
- % NR-Cl Bound to Protein ([1]; hydrolyzed whey:NR-Cl 37:1 (wt:wt), 3 days ambient): 55%
- % NR-Cl Bound to Protein ([1]; hydrolyzed whey:NR-Cl 37:1 (wt:wt), 5 days ambient): 54%
- % NR-Cl Bound to Protein ([1]; hydrolyzed whey:NR-Cl 37:1 (wt:wt), 7 days ambient): 54%
- % NR-Cl Bound to Protein ([1]; hydrolyzed whey:NR-Cl 37:1 (wt:wt), 30 days refrigerated): 45%
- % NR-Cl Bound to Protein ([1]; hydrolyzed whey:NR-Cl 73:1 (wt:wt), 0 days ambient): 60%
- % NR-Cl Bound to Protein ([1]; hydrolyzed whey:NR-Cl 73:1 (wt:wt), 0 days refrigerated): 60%
- % NR-Cl Bound to Protein ([1]; hydrolyzed whey:NR-Cl 73:1 (wt:wt), 3 days ambient): 66%
- % NR-Cl Bound to Protein ([1]; hydrolyzed whey:NR-Cl 73:1 (wt:wt), 5 days ambient): 65%
- % NR-Cl Bound to Protein ([1]; hydrolyzed whey:NR-Cl 73:1 (wt:wt), 7 days ambient): 65%
- % NR-Cl Bound to Protein ([1]; hydrolyzed whey:NR-Cl 73:1 (wt:wt), 30 days refrigerated): 57%
- % NR-Cl Bound to Protein ([1]; hydrolyzed whey:NR-Cl 147:1 (wt:wt), 0 days ambient): 65%
- % NR-Cl Bound to Protein ([1]; hydrolyzed whey:NR-Cl 147:1 (wt:wt), 3 days ambient): 71%
- % NR-Cl Bound to Protein ([1]; hydrolyzed whey:NR-Cl 147:1 (wt:wt), 5 days ambient): 72%
- % NR-Cl Bound to Protein ([1]; hydrolyzed whey:NR-Cl 147:1 (wt:wt), 7 days ambient): 69%
- % NR-Cl Bound to Protein ([1]; hydrolyzed whey:NR-Cl 293:1 (wt:wt), 0 days ambient): 67%
- % NR-Cl Bound to Protein ([1]; hydrolyzed whey:NR-Cl 293:1 (wt:wt), 3 days ambient): 62%
- % NR-Cl Bound to Protein ([1]; hydrolyzed whey:NR-Cl 293:1 (wt:wt), 7 days ambient): 72%
- % NR-Cl Bound to Protein (Albumin): 47%
- % NR-Cl Bound to Protein (Alpha-lactalbumin): 62%
- % NR-Cl Bound to Protein (Beta-lactoglobulin): 66%
- % NR-Cl Bound to Protein (Lactoferrin): 28%
- % NR-Cl Bound to Protein (Transferrin): 15%
- % NR-Cl Bound to Protein ([2]; 0 days refrigerated): 49%
- % NR-Cl Bound to Protein ([2]; 1 day refrigerated): 54%
- WaterLOGSY binding ([3]; denatured milk concentrate (80° C. for 15-20 mins)): decreased binding
- WaterLOGSY binding ([3]; milk concentrate): evidence of positive binding
- WaterLOGSY binding (soy isolate proteins): increase in binding with NR-Cl only after denaturation
